# Laboratory results: ChEMBL document CHEMBL2406981, “Novel pyrazoline amidoxime and their 1,2,4-oxadiazole analogues: synthesis and pharmacological screening” (Bioorg Med Chem Lett, 2013)
# Tested on: not listed separately
# Assay: Antiinflammatory activity against heat-induced albumin denaturation at […] preincubated for 15 mins before heat induction by UV-vis spectrophotometer analysis
# Type: functional
# Settings: not given
row,Compound,inhibition [%]
1,COc1ccc(-c2nc(C3CC(c4ccc(Cl)cc4)=NN3c3ccccc3)no2)cc1OC (stereo unspecified),53.5

# Tested on: Aspergillus flavus
# Assay: Antimicrobial activity against Aspergillus flavus MTCC 873
# Type: functional
# Settings: not given
row,Compound,MIC [µg/mL]
1,COc1ccc(-c2nc(C3CC(c4ccc(Cl)cc4)=NN3c3ccccc3)no2)cc1OC (stereo unspecified),10

# Tested on: Aspergillus niger
# Assay: Antimicrobial activity against Aspergillus niger MTCC 281
# Type: functional
# Settings: not given
row,Compound,MIC [µg/mL]
1,COc1ccc(-c2nc(C3CC(c4ccc(Cl)cc4)=NN3c3ccccc3)no2)cc1OC (stereo unspecified),10

# Tested on: Shigella flexneri
# Assay: Antimicrobial activity against Shigella flexneri MTCC 1457
# Type: functional
# Settings: not given
row,Compound,MIC [µg/mL]
1,COc1ccc(-c2nc(C3CC(c4ccc(Cl)cc4)=NN3c3ccccc3)no2)cc1OC (stereo unspecified),15

# Tested on: Escherichia coli
# Assay: Antimicrobial activity against Escherichia coli MTCC 724
# Type: functional
# Settings: not given
row,Compound,MIC [µg/mL]
1,COc1ccc(-c2nc(C3CC(c4ccc(Cl)cc4)=NN3c3ccccc3)no2)cc1OC (stereo unspecified),20

# Tested on: Klebsiella pneumoniae
# Assay: Antimicrobial activity against Klebsiella pneumoniae MTCC 3384
# Type: functional
# Settings: not given
row,Compound,MIC [µg/mL]
1,COc1ccc(-c2nc(C3CC(c4ccc(Cl)cc4)=NN3c3ccccc3)no2)cc1OC (stereo unspecified),15

# Tested on: Staphylococcus aureus
# Assay: Antimicrobial activity against Staphylococcus aureus MTCC 96
# Type: functional
# Settings: not given
row,Compound,MIC [µg/mL]
1,COc1ccc(-c2nc(C3CC(c4ccc(Cl)cc4)=NN3c3ccccc3)no2)cc1OC (stereo unspecified),25

# Tested on: Bacillus cereus
# Assay: Antimicrobial activity against Bacillus cereus MTCC 8372
# Type: functional
# Settings: not given
row,Compound,MIC [µg/mL]
1,COc1ccc(-c2nc(C3CC(c4ccc(Cl)cc4)=NN3c3ccccc3)no2)cc1OC (stereo unspecified),20

# Tested on: Aspergillus niger
# Assay: Antimicrobial activity against Aspergillus niger MTCC 281 at 50 ug/ml after 24 hrs by agar disc diffusion method
# Type: functional
# Settings: MTCC 281, 24 h, read-out: DIZ
row,Compound,zone of inhibition at 50 µg/mL [mm]
1,COc1ccc(-c2nc(C3CC(c4ccc(Cl)cc4)=NN3c3ccccc3)no2)cc1OC (stereo unspecified),14

# Tested on: Aspergillus niger
# Assay: Antimicrobial activity against Aspergillus niger MTCC 281 at 100 ug/ml after 24 hrs by agar disc diffusion method
# Type: functional
# Settings: MTCC 281, 24 h, read-out: DIZ
row,Compound,zone of inhibition at 100 µg/mL [mm]
1,COc1ccc(-c2nc(C3CC(c4ccc(Cl)cc4)=NN3c3ccccc3)no2)cc1OC (stereo unspecified),27

# Tested on: Aspergillus flavus
# Assay: Antimicrobial activity against Aspergillus flavus MTCC 873 at 100 ug/ml after 24 hrs by agar disc diffusion method
# Type: functional
# Settings: MTCC 873, 24 h, read-out: DIZ
row,Compound,zone of inhibition at 100 µg/mL [mm]
1,COc1ccc(-c2nc(C3CC(c4ccc(Cl)cc4)=NN3c3ccccc3)no2)cc1OC (stereo unspecified),21

# Tested on: Aspergillus flavus
# Assay: Antimicrobial activity against Aspergillus flavus MTCC 873 at 50 ug/ml after 24 hrs by agar disc diffusion method
# Type: functional
# Settings: MTCC 873, 24 h, read-out: DIZ
row,Compound,zone of inhibition at 50 µg/mL [mm]
1,COc1ccc(-c2nc(C3CC(c4ccc(Cl)cc4)=NN3c3ccccc3)no2)cc1OC (stereo unspecified),14

# Tested on: Shigella flexneri
# Assay: Antimicrobial activity against Shigella flexneri MTCC 1457 at 100 ug/ml after 24 hrs by agar disc diffusion method
# Type: functional
# Settings: MTCC 1457, 24 h, read-out: DIZ
row,Compound,zone of inhibition at 100 µg/mL [mm]
1,COc1ccc(-c2nc(C3CC(c4ccc(Cl)cc4)=NN3c3ccccc3)no2)cc1OC (stereo unspecified),16

# Tested on: Shigella flexneri
# Assay: Antimicrobial activity against Shigella flexneri MTCC 1457 at 50 ug/ml after 24 hrs by agar disc diffusion method
# Type: functional
# Settings: MTCC 1457, 24 h, read-out: DIZ
row,Compound,zone of inhibition at 50 µg/mL [mm]
1,COc1ccc(-c2nc(C3CC(c4ccc(Cl)cc4)=NN3c3ccccc3)no2)cc1OC (stereo unspecified),10

# Tested on: Klebsiella pneumoniae
# Assay: Antimicrobial activity against Klebsiella pneumoniae MTCC 3384 at 100 ug/ml after 24 hrs by agar disc diffusion method
# Type: functional
# Settings: MTCC 3384, 24 h, read-out: DIZ
row,Compound,zone of inhibition at 100 µg/mL [mm]
1,COc1ccc(-c2nc(C3CC(c4ccc(Cl)cc4)=NN3c3ccccc3)no2)cc1OC (stereo unspecified),11

# Tested on: Klebsiella pneumoniae
# Assay: Antimicrobial activity against Klebsiella pneumoniae MTCC 3384 at 50 ug/ml after 24 hrs by agar disc diffusion method
# Type: functional
# Settings: MTCC 3384, 24 h, read-out: DIZ
row,Compound,zone of inhibition at 50 µg/mL [mm]
1,COc1ccc(-c2nc(C3CC(c4ccc(Cl)cc4)=NN3c3ccccc3)no2)cc1OC (stereo unspecified),9

# Tested on: Escherichia coli
# Assay: Antimicrobial activity against Escherichia coli MTCC 724 at 100 ug/ml after 24 hrs by agar disc diffusion method
# Type: functional
# Settings: MTCC 724, 24 h, read-out: DIZ
row,Compound,zone of inhibition at 100 µg/mL [mm]
1,COc1ccc(-c2nc(C3CC(c4ccc(Cl)cc4)=NN3c3ccccc3)no2)cc1OC (stereo unspecified),12

# Tested on: Escherichia coli
# Assay: Antimicrobial activity against Escherichia coli MTCC 724 at 50 ug/ml after 24 hrs by agar disc diffusion method
# Type: functional
# Settings: MTCC 724, 24 h, read-out: DIZ
row,Compound,zone of inhibition at 50 µg/mL [mm]
1,COc1ccc(-c2nc(C3CC(c4ccc(Cl)cc4)=NN3c3ccccc3)no2)cc1OC (stereo unspecified),8

# Tested on: Staphylococcus aureus
# Assay: Antimicrobial activity against Staphylococcus aureus MTCC 96 at 100 ug/ml after 24 hrs by agar disc diffusion method
# Type: functional
# Settings: MTCC 96, 24 h, read-out: DIZ
row,Compound,zone of inhibition at 100 µg/mL [mm]
1,COc1ccc(-c2nc(C3CC(c4ccc(Cl)cc4)=NN3c3ccccc3)no2)cc1OC (stereo unspecified),12

# Tested on: Staphylococcus aureus
# Assay: Antimicrobial activity against Staphylococcus aureus MTCC 96 at 50 ug/ml after 24 hrs by agar disc diffusion method
# Type: functional
# Settings: MTCC 96, 24 h, read-out: DIZ
row,Compound,zone of inhibition at 50 µg/mL [mm]
1,COc1ccc(-c2nc(C3CC(c4ccc(Cl)cc4)=NN3c3ccccc3)no2)cc1OC (stereo unspecified),6

# Tested on: Bacillus cereus
# Assay: Antimicrobial activity against Bacillus cereus MTCC 8372 at 100 ug/ml after 24 hrs by agar disc diffusion method
# Type: functional
# Settings: MTCC 8372, 24 h, read-out: DIZ
row,Compound,zone of inhibition at 100 µg/mL [mm]
1,COc1ccc(-c2nc(C3CC(c4ccc(Cl)cc4)=NN3c3ccccc3)no2)cc1OC (stereo unspecified),14

# Tested on: Bacillus cereus
# Assay: Antimicrobial activity against Bacillus cereus MTCC 8372 at 50 ug/ml after 24 hrs by agar disc diffusion method
# Type: functional
# Settings: MTCC 8372, 24 h, read-out: DIZ
row,Compound,zone of inhibition at 50 µg/mL [mm]
1,COc1ccc(-c2nc(C3CC(c4ccc(Cl)cc4)=NN3c3ccccc3)no2)cc1OC (stereo unspecified),8

# Tested on: not listed separately
# Assay: Antioxidant activity against ferric chloride-induced lipid peroxidation using egg lecithin at 50 ug/ml after 1 hr
# Type: functional
# Settings: not given
row,Compound,inhibition [%]
1,COc1ccc(-c2nc(C3CC(c4ccc(Cl)cc4)=NN3c3ccccc3)no2)cc1OC (stereo unspecified),52

# Tested on: not listed separately
# Assay: Antioxidant activity against ferric chloride-induced lipid peroxidation using egg lecithin at 100 ug/ml after 1 hr
# Type: functional
# Settings: not given
row,Compound,inhibition [%]
1,COc1ccc(-c2nc(C3CC(c4ccc(Cl)cc4)=NN3c3ccccc3)no2)cc1OC (stereo unspecified),73

# Tested on: not listed separately
# Assay: Antioxidant activity against ferric chloride-induced lipid peroxidation using egg lecithin at 10 ug/ml after 1 hr
# Type: functional
# Settings: not given
row,Compound,inhibition [%]
1,COc1ccc(-c2nc(C3CC(c4ccc(Cl)cc4)=NN3c3ccccc3)no2)cc1OC (stereo unspecified),30

# Tested on: not listed separately
# Assay: Antioxidant activity assessed as reducing power of ferric ion at 50 ug/ml after 20 mins
# Type: functional
# Parameters: scale not given: the % may be the effect or the level left
# Settings: not given
row,Compound,Activity [%]
1,COc1ccc(-c2nc(C3CC(c4ccc(Cl)cc4)=NN3c3ccccc3)no2)cc1OC (stereo unspecified),29

# Tested on: not listed separately
# Assay: Antioxidant activity assessed as reducing power of ferric ion at 100 ug/ml after 20 mins
# Type: functional
# Parameters: scale not given: the % may be the effect or the level left
# Settings: not given
row,Compound,Activity [%]
1,COc1ccc(-c2nc(C3CC(c4ccc(Cl)cc4)=NN3c3ccccc3)no2)cc1OC (stereo unspecified),75

# Tested on: not listed separately
# Assay: Antioxidant activity assessed as reducing power of ferric ion at 10 ug/ml after 20 mins
# Type: functional
# Parameters: scale not given: the % may be the effect or the level left
# Settings: not given
row,Compound,Activity [%]
1,COc1ccc(-c2nc(C3CC(c4ccc(Cl)cc4)=NN3c3ccccc3)no2)cc1OC (stereo unspecified),14

# Tested on: Radical scavenging activity
# Assay: Antioxidant activity assessed as DPPH free radical scavenging activity at 50 ug/ml after 20 mins
# Type: functional
# Settings: not given
row,Compound,Activity [%]
1,COc1ccc(-c2nc(C3CC(c4ccc(Cl)cc4)=NN3c3ccccc3)no2)cc1OC (stereo unspecified),59

# Tested on: Radical scavenging activity
# Assay: Antioxidant activity assessed as DPPH free radical scavenging activity at 100 ug/ml after 20 mins
# Type: functional
# Settings: not given
row,Compound,Activity [%]
1,COc1ccc(-c2nc(C3CC(c4ccc(Cl)cc4)=NN3c3ccccc3)no2)cc1OC (stereo unspecified),86

# Tested on: Radical scavenging activity
# Assay: Antioxidant activity assessed as DPPH free radical scavenging activity at 10 ug/ml after 20 mins
# Type: functional
# Settings: not given
row,Compound,Activity [%]
1,COc1ccc(-c2nc(C3CC(c4ccc(Cl)cc4)=NN3c3ccccc3)no2)cc1OC (stereo unspecified),30
